Reference: ChEMBL document CHEMBL1201862, “PubChem BioAssay data set” (2004)
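Compound exposure: 48 hours, 5 concentrations, 96-well plates. Here, GI50 denotes the concentration required for 50% inhibition of growth.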 Activity calls are given as the source filed them. Cut-off read from the data, not from the text of the source: active = GI50 up to about 1.1 µM and inactive = higher.

Columns and labels:
Test in all cases: NCI anticancer screen, dose series, 48 h
CCRF-CEM = system: CCRF-CEM
HCC 2998 = system: HCC 2998
HOP-62 = system: HOP-62
KM-20L2 = system: KM-20L2
LOX IMVI = system: LOX IMVI
Malme-3M = system: Malme-3M
NCI-H23 = system: NCI-H23
NCI-H460 = system: NCI-H460
OVCAR-3 = system: OVCAR-3
OVCAR-4 = system: OVCAR-4
OVCAR-5 = system: OVCAR-5
RXF 393 = system: RXF 393
SNB-75 = system: SNB-75
TK-10 = system: TK-10
UACC-257 = system: UACC-257
UACC-62 = system: UACC-62
HCT-116 = system: HCT-116
UO-31 = system: UO-31

Measured: GI50

O=C1CC(O)(c2ccccc2)C(c2ccccc2)=C1c1ccccc1 (stereo not drawn)
inactive: CCRF-CEM 30.1 µM | HCC 2998 57.1 µM | HOP-62 38.2 µM | KM-20L2 41.8 µM | LOX IMVI 38.2 µM | Malme-3M 46 µM | NCI-H23 35.9 µM | NCI-H460 33.2 µM | OVCAR-3 29.4 µM | OVCAR-4 34.1 µM | OVCAR-5 > 100 µM | RXF 393 28.7 µM | SNB-75 27.8 µM | TK-10 81.5 µM | UACC-257 31.5 µM | UACC-62 29.5 µM

CN(C)[C@@H]1C(O)=C(C(N)=O)C(=O)[C@@]2(O)C(O)=C3C(=O)c4c(O)cccc4C[C@H]3C[C@@H]12
inactive: CCRF-CEM 2.37 µM | HCC 2998 1.78 µM | HCT-116 1.77 µM | HOP-62 2 µM | KM-20L2 2.19 µM | LOX IMVI 1.91 µM | Malme-3M 1.51 µM | NCI-H23 2 µM | NCI-H460 2.18 µM | OVCAR-3 1.75 µM | OVCAR-4 1.68 µM | OVCAR-5 2.09 µM | RXF 393 1.69 µM | SNB-75 1.61 µM | TK-10 2.52 µM | UACC-62 1.72 µM | UO-31 1.87 µM

O=C(c1ccc(NCN2C(=O)CCC2=O)cc1)c1ccc(NCN2C(=O)CCC2=O)cc1
inactive: CCRF-CEM > 100 µM | HCC 2998 > 100 µM | HCT-116 > 100 µM | HOP-62 > 100 µM | KM-20L2 > 100 µM | LOX IMVI > 100 µM | Malme-3M > 100 µM | NCI-H23 > 100 µM | NCI-H460 > 100 µM | OVCAR-3 > 100 µM | OVCAR-4 > 100 µM | OVCAR-5 > 100 µM | RXF 393 > 100 µM | TK-10 > 100 µM | UACC-257 27.7 µM | UACC-62 > 100 µM | UO-31 > 100 µM

COc1ccc(C2=NN(c3ccccc3)C[N+](c3ccc(OC)cc3)=N2)cc1
inactive: CCRF-CEM 23.2 µM | HCC 2998 37.8 µM | HCT-116 33.7 µM | HOP-62 66.1 µM | KM-20L2 29.6 µM | LOX IMVI 17.6 µM | Malme-3M 21.2 µM | NCI-H23 29.9 µM | NCI-H460 47.5 µM | OVCAR-3 22 µM | OVCAR-4 18.6 µM | OVCAR-5 25 µM | RXF 393 26 µM | TK-10 42.4 µM | UACC-257 76.2 µM | UO-31 18.9 µM

Cc1c(C(=O)CC(=O)C(=O)Nc2ccccc2C(F)(F)F)[n+]([O-])c2ccccc2[n+]1[O-]
inactive: CCRF-CEM 18.6 µM | HCC 2998 13.4 µM | HCT-116 14.7 µM | HOP-62 44 µM | KM-20L2 33.7 µM | LOX IMVI 18.7 µM | Malme-3M 20.6 µM | NCI-H23 17.4 µM | NCI-H460 21.3 µM | OVCAR-3 2.63 µM | OVCAR-4 18.1 µM | OVCAR-5 26.8 µM | RXF 393 19.2 µM | TK-10 46.8 µM | UACC-257 18.4 µM | UACC-62 18 µM | UO-31 35.1 µM

N#Cc1cccc(N2C(=O)c3ccc(C(=O)c4ccc5c(c4)C(=O)N(c4cccc(C#N)c4)C5=O)cc3C2=O)c1
inactive: CCRF-CEM > 100 µM | HCT-116 > 100 µM | HOP-62 > 100 µM | KM-20L2 > 100 µM | LOX IMVI > 100 µM | Malme-3M > 100 µM | NCI-H23 > 100 µM | NCI-H460 > 100 µM | OVCAR-3 > 100 µM | OVCAR-4 > 100 µM | OVCAR-5 > 100 µM | RXF 393 > 100 µM | SNB-75 35.6 µM | TK-10 > 100 µM | UACC-257 > 100 µM | UACC-62 > 100 µM | UO-31 > 100 µM

CN1N=C2c3ccccc3CC[C@H]2C1c1ccccc1 (stereo partly drawn)
inactive: CCRF-CEM > 100 µM | HCC 2998 85.7 µM | HCT-116 18 µM | HOP-62 47.9 µM | KM-20L2 36.9 µM | LOX IMVI 47.1 µM | Malme-3M 25.5 µM | NCI-H23 16.1 µM | NCI-H460 28.9 µM | OVCAR-3 41.8 µM | OVCAR-4 23.1 µM | OVCAR-5 > 100 µM | RXF 393 17 µM | TK-10 > 100 µM | UACC-257 22.3 µM | UACC-62 32.3 µM | UO-31 19.4 µM

Brc1ccc(C[N+]23CN4CN(CN(C4)C2)C3)cc1
inactive: CCRF-CEM 20.5 µM | HCC 2998 47.1 µM | HCT-116 28.1 µM | HOP-62 > 100 µM | KM-20L2 31.1 µM | LOX IMVI 18.8 µM | Malme-3M 26.2 µM | NCI-H23 29.1 µM | NCI-H460 28.3 µM | OVCAR-3 73.1 µM | RXF 393 17 µM | SNB-75 > 100 µM | TK-10 > 100 µM | UACC-257 30.5 µM | UACC-62 14.8 µM | UO-31 50.5 µM
